Measurements as given in patent US6423702B1, “PROCESS FOR THE HYDROXYLATION OF AN ACYCLIC OR CYCLIC METHYLENE RADICAL IN THE ALLYLIC POSITION, PHARMACEUTICAL COMPOSITION CONTAINING HYDROXYCHOLESTEROL DERIVATIVES AND UTILIZATION OF SUCH COMPOSITIONS FOR THE PREPARATION OF DRUGS” (priority 1991, dated 2002).

Columns and labels:
[1] = test system: subcutaneous glioblastomas (C6 cells); assay: Subcutaneous tumors induced by inoculating with C6 cells, intratumoral liposome treatment; type: in vivo, rat; details: 50 μl liposomes with 1 mg PC and 100 μg steroid injected into the tumors; photographed 48 hours afterwards
Experimental: The C6 cells (passage 55-57) are injected subcutaneously at the shoulders at a charge of 10^6 cells/200 μl of […] in rats (26 g) aged 3 weeks according to Ledig et al., (Revue de l'Alcoolisme, 1986, 31, 1-11); when the tumors develop (2 weeks after inoculating with the C6 cells), 50 μl of a suspension of liposomes containing 1 mg of PC and 100 μg of cholesteryl oleate or 7β-OH-cholesteryl oleate are injected into the tumors. The animals are photographed 48 hours afterwards.

[2] = test system: reactional gliosis (reactive astrocytes); assay: Reactional gliosis after electrolytic lesion of the striatum (brain), GFAP detection; type: in vivo, rat; details: rats aged 6 days; 2 μl liposomes with 20 μg PC and 2 μg sterol or oxysterol injected into the site of lesion
Experimental: (§1) PC and steroidal derivatives are dissolved in CHCL3/methanol [sic] (2/1 v/v), the solvent evaporated and 1 ml of KCL [sic] (0.15 M) added. The suspension is subjected to ultrasound in an ice bath (5×1 min with an interval of 30 sec, amplitude 18 μm), centrifuged 13,000 g for 20 min, the supernatant withdrawn and concentrated 5 times under nitrogen. BRAIN
Rats aged 6 days are anesthetized with an intraperitoneal injection of imalgene 500 (2 mg/10 g) and valium (0.05 ml/10 g) and then placed in a stereotaxic apparatus in order to be subjected to an electrolytic lesion at the level of the striatum. For this, a dental probe, insulated except at the point, is moved down to the level of the striatum according to the stereotaxic coordinates with respect to the lambda. At this level, a current of 2 mA is applied for 10 secs;
2 μl of a suspension of liposomes containing 20 μg of PC and 2 μg of various sterols or oxysterols are injected into the site of lesion.
(§2) GFAP, specific structural labeler of astrocytes, is detected on paraffin sections by the antibody/antiantibody system to GFAP coupled to the peroxidase.

[3] = test system: glioblastomas in the rat cortex (C6 cells); assay: Glioblastomas induced in the brain with C6 cells, liposome treatment at the tumor site; type: in vivo
Experimental: The “in vivo” model proposed by Galli et al., (J. Neurooncology, 7, 299-304, 1989) has been adopted with a few modifications in the number of C6-type cells injected and in the age of the rats. Rats (Wistar male) aged 6 days are anesthetized and placed in a stereotaxic apparatus, the skin of the cranium is opened and the skull pierced at appropriate coordinates (4.5 AP, 3.0 ML, 2.0 mm DV with respect to the lambda, set 0) using a dental drill; 200×10^3 C6 in […] of PBS are then injected over 4 minutes and then the skin sutured. 72 hours later, the rats are operated on again and treated with liposomes containing the 7β-hydroxycholesteryl 3-esters. […]
The rats are sacrificed 8 days after the treatment by […] injection of pentobarbital, perfused with formalin (4%) and the withdrawn brain is post-fixed in formalin (4%) and then in isobutanol and included in paraffin. Sections with a thickness of 10 μm are prepared using a section cutter and, after removing paraffin in toluene, the glioblastomas are detected by staining with Cresyl Violet (0.1% in 0.1 M […] and 0.1 M sodium acetate) and subjected to an image analyzer (IBAS, KONTRON, SAMBA ALCATEL). […]
Quantitative analysis of the lesions thus observed requires the acquisition of images with sequences of echoes of spin having several echoes and recovery times. […]

[4] = test system: secondary reactional gliosis (reactive astrocytes); assay: Reactional gliosis after complete section of the spinal cord at T8, GFAP detection; type: in vivo, rat; details: rats 250 g; 5 μl liposomes with 500 μg PC and 50 μg ester injected 0.5 mm downstream of the section
Experimental: as §1
After complete section of the spinal cord at the T8 level in rats weighing 250 g (Sprague, Dawley, EFFA, Credo), 5 μl of a suspension of liposomes containing 500 μg of PC and 50 μg of esters of 7β-OH-CH (C18:0 or C18:1) are injected at 0.5 mm downstream of the section.
as §2

[5] = test system: ascitic tumors, Krebs-II transplantable carcinoma; details: injected intraperitoneally into mice carrying ascitic tumors; cited from earlier work
[6] = test system: rat liver epithelial cells; details: cited from earlier work
[7] = test system: hepatocytes from newborn rats; details: cited from earlier work
[8] = test system: lymphoma (mouse RDM4 and YAC-1); details: mouse RDM4 and YAC-1 lymphoma; cited from earlier work
[9] = test system: cultured heart cells from newborn rats; details: cited from earlier work
transformed astrocytes = details: cited from earlier work
[10] = test system: rat fibroblasts originating from the heart; details: cited from earlier work
[11] = test system: HTC cells (rat liver tumoral cells); details: cited from earlier work
[12] = test system: tumors induced by 7,12-di-methylbenz(α)anthracene; details: female Sprague-Dawley rats; cited from earlier work

SMILES: CCCCCCCC/C=C\CCCCCCCC(=O)O[C@H]1CC[C@@]2(C)C(=C[C@H](O)[C@H]3[C@@H]4CC[C@H]([C@H](C)CCCC(C)C)[C@@]4(C)CC[C@@H]32)C1 [7β-OH-CH (C18:1), 7β-hydroxycholesteryl 3-oleate]
- effect on the subcutaneous tumor [1]: significant regression
- reactional gliosis in the CNS [2]: high attenuation
- size of the tumors (Cresyl Violet staining) ([3]; 40 μg in PC/GM1 liposomes injected 72 hours after C6 inoculation, sacrifice 8 days after treatment): significant reduction
- monitoring of the tumor over time by NMR imagery ([3]; same glioblastoma induced in the cortex of a rat, during treatment): regression
- secondary reactional gliosis at the spinal cord lesion site [4]: reduces

SMILES: CC(C)CCC[C@@H](C)[C@H]1CC[C@H]2[C@@H]3[C@@H](OC(=O)CCC(=O)O)C=C4C[C@@H](OC(=O)CCC(=O)O)CC[C@]4(C)[C@H]3CC[C@]12C [7β-hydroxycholesterol 3,7-bis(hemisuccinate)]
- antitumoral activity [5]: antitumoral activity

SMILES: CC(C)CCC[C@@H](C)[C@H]1CC[C@H]2[C@@H]3[C@@H](O)C=C4C[C@@H](O)CC[C@]4(C)[C@H]3CC[C@]12C [7β-hydroxycholesterol]
- cytotoxic activity against cultured cells [6]: cytotoxic activity
- effect on cells with weaker potential for division [7]: not detrimentally affected
- cytotoxic activity against cultured cells [8]: cytotoxic activity
- effect on cells with weaker potential for division [9]: not detrimentally affected
- metabolism to esters of fatty acids (transformed astrocytes): metabolized
- cytotoxic activity against cultured cells [10]: cytotoxic activity
- cytotoxic activity against cultured cells [11]: cytotoxic activity

SMILES: CC(C)CC[C@@H](O)[C@@H](C)[C@H]1CC[C@H]2[C@@H]3[C@@H](O)C=C4C[C@@H](O)CC[C@]4(C)[C@H]3CC[C@]12C [(22 R)-cholest-5-ene-3β,7β22-triol]
- development of tumors [12]: effectively reduced

SMILES: CCCCCCCCCCCCCCCC(=O)O[C@H]1CC[C@@]2(C)C(=CC[C@H]3[C@@H]4CC[C@H]([C@H](C)CCCC(C)C)[C@@]4(C)CC[C@@H]32)C1 [CH (C16:0), cholesteryl palmitate]
- reactional gliosis in the CNS [2]: ineffective

SMILES: CCCCCCCC/C=C\CCCCCCCC(=O)O[C@H]1CC[C@@]2(C)C(=CC[C@H]3[C@@H]4CC[C@H]([C@H](C)CCCC(C)C)[C@@]4(C)CC[C@@H]32)C1 [CH (C18:1), cholesteryl oleate]
- effect on the subcutaneous tumor [1]: practically no effect

SMILES: CC(C)CCC[C@@H](C)[C@H]1CC[C@H]2[C@@H]3CC=C4C[C@@H](O)CC[C@]4(C)[C@H]3CC[C@]12C [CH, cholesterol]
- reactional gliosis in the CNS [2]: ineffective
